The data set addresses T1, hERG channel (Homo sapiens, UniProt Q12809).
T1 construct: expressed in transfected cells; host or cells: CHO (hERG-CHO), under Geneticin selection
Nature of the data set: hERG channel inhibition, automated patch clamp (IonWorks HT, hERG-CHO). The data set is classed as cell-based. Particulars: CHO cells expressing hERG, 600 s incubation; for inhibition at 600 s, 1 µM: 1 μM compound, read-out: hERG Channel Inhibition % (at 1 μM), vehicle-subtracted values; for inhibition at 600 s, 10 µM: 10 μM compound, read-out: hERG Channel Inhibition % (at 10 μM), vehicle-subtracted values. The procedure:
Human ether-a-gogo-related (hERG) ion channel encodes the inward rectifying voltage gated potassium channel in the heart and has a major role during the repolarization of the cardiac action potential. It is well established that blockade of this ion channel can lead to potentially lethal arrhythmias. hERG pre-clinical safety data is often used by regulatory agencies in elucidate the toxicity profile of certain compositions. The disclosed compounds of Table 1 were tested for their ability to inhibit hERG ion channels.
Media components include F12 Nutrient Mixture (Ham) with GlutaMAX™ (Invitrogen, Cat#31765), Fetal Bovine Serum, Certified (Invitrogen, Cat#16000-044—not heat activated), and Geneticin® Selective Antibiotic (Invitrogen, Cat#10131-027).
One vial of frozen cells, at 1.62×10^6 cells are thawed into a T150 flask (BD Falcon 355001) with 40 mL of pre-warmed complete media. Cells are cultured at 37° C., 5% CO2 for four hours prior to gently changing media. 99% of cells appear attached at this time point.
The flask is media changed at 24 hours post-thaw, the cells are imaged, media changed, and returned to the incubator. At this point, the cells appear healthy and about 25% confluent in the flask. Cells are typically passed 24-48 hours after thaw according to the following intervals and densities below. Cells are incubated at 30° C. for 48 hours prior to assay.
Using an automated patch clamp apparatus (IonWorks^HT), a three pulse protocol was applied by stepping from a holding potential of −80 mV to […] for 2 s, to activate hERG channels. The membrane voltage was then stepped back to −50 mV for 2 s to evoke a tail current prior to returning to the holding potential for 1 s. This sequence was repeated a further two times. This voltage protocol was applied prior to drug (Pre compound) and after 600 s in the presence of drug (Post compound).
The amplitude of the hERG tail current was calculated by measuring the difference between the maximum current on stepping to −50 mV of the third pulse (i.e. peak of the outward hERG tail current) and the current measured immediately prior to activation of any hERG current. This parameter was assessed before (pre tail current amplitude) and after 600 s incubation (post tail current amplitude) in drug. In order to assess the amount of block produced by test compounds, the data was first filtered using the IonWorks™ software to exclude any cells where the seal resistance was less than 50 MOhm. The remaining data was then exported to an excel compatible data file and only currents with tail currents greater than 250 pA were analyzed. The post/pre tail current amplitude ratio for the third pulse was calculated for each drug and control, and presented as percent inhibition.

Inhibition data for eight molecules are collected here from US20150175599A1, “FAAH Inhibitors” (Ironwood Pharmaceuticals, Inc., priority 2010, published 2015).

T1 sequence (Q12809 whole entry): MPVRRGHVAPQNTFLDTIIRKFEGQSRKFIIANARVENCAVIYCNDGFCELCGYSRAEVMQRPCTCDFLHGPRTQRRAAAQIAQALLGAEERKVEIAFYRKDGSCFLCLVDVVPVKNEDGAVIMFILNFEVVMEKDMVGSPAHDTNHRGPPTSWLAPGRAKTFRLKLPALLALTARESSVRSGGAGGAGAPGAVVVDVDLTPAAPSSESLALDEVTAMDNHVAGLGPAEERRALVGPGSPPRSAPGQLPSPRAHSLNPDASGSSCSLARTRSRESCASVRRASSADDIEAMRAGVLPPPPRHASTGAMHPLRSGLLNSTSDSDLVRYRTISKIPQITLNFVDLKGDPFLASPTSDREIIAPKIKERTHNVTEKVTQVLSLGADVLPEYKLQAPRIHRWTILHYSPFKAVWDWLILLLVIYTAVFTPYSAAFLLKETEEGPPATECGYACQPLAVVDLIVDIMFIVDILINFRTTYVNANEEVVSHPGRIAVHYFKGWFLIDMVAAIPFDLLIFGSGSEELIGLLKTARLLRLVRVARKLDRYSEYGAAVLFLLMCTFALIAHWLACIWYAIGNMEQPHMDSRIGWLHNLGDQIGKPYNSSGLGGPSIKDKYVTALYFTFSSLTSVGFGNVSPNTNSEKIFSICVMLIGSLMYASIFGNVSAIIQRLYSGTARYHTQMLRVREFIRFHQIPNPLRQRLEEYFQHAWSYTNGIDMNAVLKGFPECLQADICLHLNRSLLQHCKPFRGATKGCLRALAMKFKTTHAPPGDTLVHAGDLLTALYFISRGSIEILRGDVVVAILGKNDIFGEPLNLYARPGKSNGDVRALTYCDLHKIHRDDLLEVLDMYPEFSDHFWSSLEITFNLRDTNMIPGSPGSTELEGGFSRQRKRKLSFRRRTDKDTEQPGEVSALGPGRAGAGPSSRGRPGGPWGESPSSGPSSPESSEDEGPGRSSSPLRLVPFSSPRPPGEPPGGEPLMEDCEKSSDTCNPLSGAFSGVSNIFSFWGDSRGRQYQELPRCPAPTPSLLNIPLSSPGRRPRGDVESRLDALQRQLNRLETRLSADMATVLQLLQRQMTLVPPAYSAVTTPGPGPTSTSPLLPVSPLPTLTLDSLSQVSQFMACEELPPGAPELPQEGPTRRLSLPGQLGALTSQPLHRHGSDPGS

As to `COc1ccc2c(c1)c(C(=O)C(=O)Nc1ccnc(OC)c1F)c(C)n2Cc1ccc(Cl)cc1` [Compound 53, 2-(1-(4-chlorobenzyl)-5-methoxy-2-methyl-1H-indol-3-yl)-N-(3-fluoro-2-methoxypyridin-4-yl)-2-oxoacetamide], the inhibition at 600 s, 1 µM was below 25% and the inhibition at 600 s, 10 µM was below 25%.
`COc1ccc2c(c1)c(C(=O)C(=O)Nc1ccnc(OC)c1Cl)c(C)n2Cc1ccc(Cl)cc1` [Compound 52, N-(3-chloro-2-methoxypyridin-4-yl)-2-(1-(4-chlorobenzyl)-5-methoxy-2-methyl-1H-indol-3-yl)-2-oxoacetamide]: the inhibition at 600 s, 1 µM was below 25% and the inhibition at 600 s, 10 µM is below 25%.
As for `COc1ccc2c(c1)c(C(=O)C(=O)Nc1ccnc(OC)c1)c(C)n2Cc1ccncc1` [Compound 16, 2-(5-methoxy-2-methyl-1-(pyridin-4-ylmethyl)-1H-indol-3-yl)-N-(2-methoxypyridin-4-yl)-2-oxoacetamide], the inhibition at 600 s, 1 µM was below 25% and the inhibition at 600 s, 10 µM is below 25%.
Consider `COc1cc(NC(=O)C(=O)c2c(C)n(Cc3ccc(Cl)cc3)c3ccc(N(C)C(=O)OC(C)(C)C)cc23)ccn1` [Compound 7, Tert-butyl(1-(4-chlorobenzyl)-3-(2-((2-methoxypyridin-4-yl)amino)-2-oxoacetyl)-2-methyl-1H-indol-5-yl)(methyl)carbamate], for which the inhibition at 600 s, 1 µM is below 25% and the inhibition at 600 s, 10 µM was below 25%.
Turning to `COc1cc(NC(=O)C(=O)c2c(C)n(Cc3ccc(Cl)cc3)c3c(OC)cccc23)ccn1` [Compound 51, 2-(1-(4-chlorobenzyl)-7-methoxy-2-methyl-1H-indol-3-yl)-N-(2-methoxypyridin-4-yl)-2-oxoacetamide], the inhibition at 600 s, 1 µM is below 25% and the inhibition at 600 s, 10 µM was below 25%.
As for `COc1ccc(Cn2c(C)c(C(=O)C(=O)Nc3ccnc(OC)c3)c3cc(OC)cnc32)nc1` [Compound 40, 2-(5-methoxy-1-((5-methoxypyridin-2-yl)methyl)-2-methyl-1H-pyrrolo[2,3-b]pyridin-3-yl)-N-(2-methoxypyridin-4-yl)-2-oxoacetamide], the inhibition at 600 s, 1 µM is below 25% and the inhibition at 600 s, 10 µM was below 25%.
For the molecule `COc1cc(NC(=O)C(=O)c2c(C)n(Cc3ccc(Cl)cc3)c3ccc(C(=O)N(C)C)cc23)ccn1` [Compound 6, 1-(4-chlorobenzyl)-3-(2-(2-methoxypyridin-4-ylamino)-2-oxoacetyl)-N,N,2-trimethyl-1H-indole-5-carboxamide], the inhibition at 600 s, 1 µM was below 25% and the inhibition at 600 s, 10 µM is below 25%.
`COc1ccc2c(c1)c(C(=O)C(=O)Nc1ccnc(OC)c1)c(C)n2Cc1ncc(Cl)cc1OC` [Compound 100, 2-(1-((5-chloro-3-methoxypyridin-2-yl)methyl)-5-methoxy-2-methyl-1H-indol-3-yl)-N-(2-methoxypyridin-4-yl)-2-oxoacetamide]: the inhibition at 600 s, 1 µM is below 25% and the inhibition at 600 s, 10 µM is below 25%.
